Where two headings read alike, the source gives them in different places.
Columns and labels:
[1] = system: acutely dissociated and purified rat OPCs; experiment: Acute OL differentiation assay (MBP expression/cell, immunofluorescent image quantification); assay type: cell-based; conditions: sheet "All OLga data"
Summary of the method: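 This acute differentiation assay used purified rat OPCs from postnatal day 6–7 pups, seeded into PDL/laminin-coated 96-well plates in differentiation medium lacking PDGF and FGF. Compounds were applied in quadruplicate after a 1–2 h preincubation at 37 °C, 10 % CO2, with 0.1 % DMSO negative and 40 ng/ml T3 positive controls in eight wells. After fixation on DIV4, anti-MBP immunofluorescence images yielded MBP expression/cell.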

expanded OPCs = experiment: cells; conditions: for viability at 0.1 µM / viability at 1 µM / viability at 10 µM: Rattus norvegicus, 72 h
Summary of the method: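 Toxicity screen: compounds added at 0.1, 1 and 10 µM to PDGF-AA-expanded OPCs in 96-well plates, 3-day incubation at 37 °C, 10% CO2, then alamarBlue 1:10 for 4 h with fluorescence readout. Results set screening doses of 10/2, 2/0.4 or 0.4/0.08 µM.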

[2] = Rattus norvegicus, test compound at 2 uM, NCC library screen, relative to quetiapine, read-out: 2 uM (% Quet)
[3] = Rattus norvegicus, test compound at 10 uM, NCC library screen, relative to quetiapine, read-out: 10 uM (% Quet)
[4] = read-out: 0.1 µM (% DMSO), alamarBlue viability, NCC library compound at 0.1 µM, sheet "All Tox data"
[5] = read-out: 1 µM (% DMSO), alamarBlue viability, NCC library compound at 1 µM, sheet "All Tox data"
[6] = read-out: 10 µM (% DMSO), alamarBlue viability, NCC library compound at 10 µM, sheet "All Tox data"
[7] = Rattus norvegicus, 2 uM test compound, relative to quetiapine, read-out: OL differentiation, 2 uM (% Quet)
[8] = Rattus norvegicus, 10 uM test compound, relative to quetiapine, read-out: OL differentiation, 10 uM (% Quet)
[9] = read-out: 0.1 µM (% DMSO), alamarBlue viability of expanded OPCs, compound at 0.1 µM, sheet All Tox data
[10] = read-out: 1 µM (% DMSO), alamarBlue viability of expanded OPCs, compound at 1 µM, sheet All Tox data
[11] = read-out: 10 µM (% DMSO), alamarBlue viability of expanded OPCs, compound at 10 µM, sheet All Tox data
[12] = Rattus norvegicus, test compound at 0.4 uM, MBP expression relative to quetiapine, NCC library screen, read-out: 0.4 uM (% Quet)
[13] = Rattus norvegicus, test compound at 2 uM, MBP expression relative to quetiapine, NCC library screen, read-out: 2 uM (% Quet)
[14] = alamarBlue viability of expanded OPCs, compound at 0.1 µM, relative to DMSO control
[15] = alamarBlue viability of expanded OPCs, compound at 1 µM, relative to DMSO control
[16] = alamarBlue viability of expanded OPCs, compound at 10 µM, relative to DMSO control
[17] = Rattus norvegicus, 0.4 uM test compound, relative to quetiapine, read-out: OL differentiation, 0.4 uM (% Quet)
[18] = Rattus norvegicus, test compound at 10 uM, MBP expression relative to quetiapine, NCC library screen, read-out: 10 uM (% Quet)

O=C1Nc2ccc(Cl)cc2C(c2ccccc2Cl)=NC1O (stereo not drawn) [Lorazepam]
activation at 2 µM [1, 2]: -21.5% | activation at 10 µM [1, 3]: -31.2% | viability at 0.1 µM (expanded OPCs; [4]): 90.5% | viability at 1 µM (expanded OPCs; [5]): 81.6% | viability at 10 µM (expanded OPCs; [6]): 71.2%

CCCCc1nc(Cl)c(CO)n1Cc1ccc(-c2ccccc2-c2nn[nH]n2)cc1 [Losartan]
activation at 2 µM [1, 7]: 5.2% | activation at 10 µM [1, 8]: -7.3% | viability at 0.1 µM (expanded OPCs; [9]): 97.6% | viability at 1 µM (expanded OPCs; [10]): 91.6% | viability at 10 µM (expanded OPCs; [11]): 102%

CCOC(=O)O[C@]1(C(=O)OCCl)CC[C@H]2[C@@H]3CCC4=CC(=O)C=C[C@]4(C)[C@H]3[C@@H](O)C[C@@]21C [Loteprednol etabonate]
activation at 2 µM [1, 7]: -10.9% | activation at 10 µM [1, 8]: -29.2% | viability at 0.1 µM (expanded OPCs; [4]): 104% | viability at 1 µM (expanded OPCs; [5]): 98.4% | viability at 10 µM (expanded OPCs; [6]): 86.4%

CC[C@H](C)C(=O)O[C@H]1C[C@@H](C)C=C2C=C[C@H](C)[C@H](CC[C@@H]3C[C@@H](O)CC(=O)O3)[C@H]21 [Lovastatin]
activation at 0.4 µM [1, 12]: -70.9% | activation at 2 µM [1, 13]: -93.2% | 0.1 µM (% DMSO) (expanded OPCs; [14]): 147.6 % DMSO | 1 µM (% DMSO) (expanded OPCs; [15]): 99.7 % DMSO | 10 µM (% DMSO) (expanded OPCs; [16]): 46.0 % DMSO

CN1CCN(C2=Nc3ccccc3Oc3ccc(Cl)cc32)CC1 [Loxapine]
activation at 0.4 µM [1, 17]: -5.9% | activation at 2 µM [1, 7]: -18.5% | viability at 0.1 µM (expanded OPCs; [9]): 85.7% | viability at 1 µM (expanded OPCs; [10]): 71.4% | viability at 10 µM (expanded OPCs; [11]): 29%

CC(C)c1ccc2c(c1)c(SC(C)(C)C)c(CC(C)(C)C(=O)O)n2Cc1ccc(Cl)cc1 [MK 886]
0.4 uM (% Quet) ([1]; test compound at 0.4 uM, NCC library screen, relative to quetiapine): 51.1 % Quet | 2 uM (% Quet) ([1]; test compound at 2 uM, NCC library screen, relative to quetiapine): -93.5 % Quet | 0.1 µM (% DMSO) (expanded OPCs; alamarBlue viability, NCC library compound at 0.1 µM, sheet "All Tox data"): 97.3 % DMSO | 1 µM (% DMSO) (expanded OPCs; alamarBlue viability, NCC library compound at 1 µM, sheet "All Tox data"): 107.0 % DMSO | 10 µM (% DMSO) (expanded OPCs; alamarBlue viability, NCC library compound at 10 µM, sheet "All Tox data"): 10.8 % DMSO

NCc1ccc(S(N)(=O)=O)cc1 [Mafenide]
activation at 2 µM [1, 13]: 28.6% | activation at 10 µM [1, 18]: 10% | 0.1 µM (% DMSO) (expanded OPCs; [14]): 97.9 % DMSO | 1 µM (% DMSO) (expanded OPCs; [15]): 90.1 % DMSO | 10 µM (% DMSO) (expanded OPCs; [16]): 86.7 % DMSO

Cc1occc(=O)c1O [Maltol]
activation at 2 µM [1, 2]: -7% | activation at 10 µM [1, 3]: 8.2% | viability at 0.1 µM (expanded OPCs; [4]): 83.5% | viability at 1 µM (expanded OPCs; [5]): 91.1% | viability at 10 µM (expanded OPCs; [6]): 84.9%

CNCCCC12CCC(c3ccccc31)c1ccccc12 [Maprotiline]
activation at 0.4 µM [1, 17]: 15.2% | activation at 2 µM [1, 7]: -52.5% | viability at 0.1 µM (expanded OPCs; [9]): 78.2% | viability at 1 µM (expanded OPCs; [10]): 54.1% | viability at 10 µM (expanded OPCs; [11]): 13.8%

COC(=O)Nc1nc2ccc(C(=O)c3ccccc3)cc2[nH]1 [Mebendazole]
activation at 0.08 µM ([1]; Rattus norvegicus, test compound at 0.08 uM, MBP expression relative to quetiapine, NCC library screen, read-out: 0.08 uM (% Quet)): -29.9% | activation at 0.4 µM [1, 12]: -139% | 0.1 µM (% DMSO) (expanded OPCs; [14]): 47.2 % DMSO | 1 µM (% DMSO) (expanded OPCs; [15]): 53.6 % DMSO | 10 µM (% DMSO) (expanded OPCs; [16]): 45.7 % DMSO

Cc1cccc(CN2CCN(C(c3ccccc3)c3ccc(Cl)cc3)CC2)c1 (stereo not drawn) [Meclizine]
activation at 0.4 µM [1, 12]: 96.7% | 0.1 µM (% DMSO) (expanded OPCs; [14]): 143.0 % DMSO | 1 µM (% DMSO) (expanded OPCs; [15]): 107.8 % DMSO | 10 µM (% DMSO) (expanded OPCs; [16]): 9.1 % DMSO

Cc1ccc(Cl)c(Nc2ccccc2C(=O)O)c1Cl [Meclofenamic acid]
activation at 2 µM [1, 13]: 14.1% | activation at 10 µM [1, 18]: -2.1% | 0.1 µM (% DMSO) (expanded OPCs; [14]): 91.1 % DMSO | 1 µM (% DMSO) (expanded OPCs; [15]): 93.6 % DMSO | 10 µM (% DMSO) (expanded OPCs; [16]): 93.6 % DMSO

CC(=O)O[C@]1(C(C)=O)CC[C@H]2[C@@H]3C[C@H](C)C4=CC(=O)CC[C@]4(C)[C@H]3CC[C@@]21C [Medroxyprogesterone acetate]
activation at 2 µM [1, 2]: -30.5% | activation at 10 µM [1, 3]: -36.7% | 0.1 µM (% DMSO) (expanded OPCs; [14]): 104.2 % DMSO | 1 µM (% DMSO) (expanded OPCs; [15]): 103.1 % DMSO | 10 µM (% DMSO) (expanded OPCs; [16]): 118.4 % DMSO

CC(=O)[C@H]1CC[C@H]2[C@@H]3C[C@H](C)C4=CC(=O)CC[C@]4(C)[C@H]3[C@@H](O)C[C@]12C [Medrysone]
activation at 2 µM [1, 2]: -6% | activation at 10 µM [1, 3]: -16.5% | viability at 0.1 µM (expanded OPCs; [4]): 130% | viability at 1 µM (expanded OPCs; [5]): 125% | viability at 10 µM (expanded OPCs; [6]): 121%

Source: article PMC5011342, “A high throughput drug screening assay to identify compounds that promote oligodendrocyte differentiation using acutely dissociated and purified oligodendrocyte precursor cells” (BMC Research Notes, 2016)
